# Read-outs that look alike come from different tables or passages of the source.
# Assays:
# EphA2 LBD = molecular target: T1, EphA2 LBD (Homo sapiens, UniProt P29317); assay: Isothermal titration calorimetry (ITC) with soluble EphA2 LBD; type: binding
# T1 construct: made in house; host or cells: E. coli Origami 2(DE3)
# Description: (FIG. 10A-10E) The EphA2 LBD was titrated at 200-250 μM into 10-12.5 μM of the indicated peptide.
# For ITC, all peptides are dissolved in DMSO and both the EphA2 LBD and the peptides are diluted to obtain a final buffer containing 9.5 mM HEPES, pH 7.9, 95 mM NaCl, and 5% DMSO. The experiments are carried out at 296 K (23° C.) using an ITC200 calorimeter (Microcal). Two-microliter aliquots of a peptide solution are injected into the cell containing 205 μL EphA2 LBD. 200-400 μM peptides are titrated into 20-40 μM EphA2 LBD. Experimental data are analyzed using the Origin software package (Microcal). The integrated values for the reaction heats are normalized to the amount of injected peptide after blank subtraction.
# EphA2 [1] = molecular target: T2, EphA2 (Homo sapiens, UniProt P29317); assay: EphA2 autophosphorylation on tyrosine 588 in PC3 cells (immunoblot dose-response); type: cell-based; set-up: EphA2 is the prevalent endogenously expressed EphA receptor in these cells; endogenous in cells; host or cells: PC3 prostate cancer cells
# Description: (FIG. 2A) Dose-response curves for EphA2 autophosphorylation on tyrosine 588 (pY588; purple) and for downstream inhibition of AKT phosphorylation (magenta). PC3 cells were treated for 15 min with different concentrations of the indicated peptides. […] The graphs show quantifications from multiple blots (averages ±SE; the number of experiments used to generate each curve is shown in Table 3). […] (FIG. 2B) Examples of immunoblots of lysates from PC3 cells treated with the indicated concentrations of representative ligands. […] A white vertical line indicates removal of irrelevant lanes. […] The bars show averages ±SE, and the individual measurements are shown as black dots. […] Plots of Etop versus EC50 for pY588 in FIG. 2D and for pAKT inh in FIG. 2E. Averages ±SE are shown for the peptides and ephrinA1.
# To examine the agonistic properties of the different dimeric peptide ligands, EphA2 autophosphorylation on tyrosine 588 (Y588) was measured, which is indicative of receptor activation and mediates binding of SH2 domain-containing proteins that link EphA2 to various downstream signaling pathways (FIG. 7). For these experiments, PC3 prostate cancer cells were stimulated with the dimeric peptides because EphA2 is the prevalent endogenously expressed EphA receptor in these cells, allowing comparisons with ephrins.
# EphA2 [2] = molecular target: T2, EphA2; assay: Bias factor βlig (pY588 versus pAKT inhibition, PC3 cells, reference ephrinA1-Fc); type: cell-based; set-up: EphA2 is the prevalent endogenously expressed EphA receptor in these cells; endogenous in cells; host or cells: PC3 prostate cancer cells
# Description: FIG. 6 illustrates an example where Ligands can bias EphA2 signaling responses. The bias factor βlig was calculated for the indicated ligands using ephrinA1-Fc as the reference ligand. Statistical significance for the comparison of the different ligands with the reference ligand ephrinA1-Fc (βlig=0) was determined by one sample t test; *, P<0.05; **, P<0.01; ***, P<0.001; ****, P<0.0001.
# FIG. 14A-14E illustrates an example where distinct factors are responsible for EphA2 biased signaling induced by different ligands. (FIG. 14A) Etop values for EphA2 Y588 phosphorylation, as in FIG. 2C. (FIG. 14B) Etop values for inhibition of AKT phosphorylation. (FIG. 14C) Graph of the ratios of the Etop values for EphA2 Y588 phosphorylation and inhibition of AKT phosphorylation, which are used in the βlig calculation. (FIG. 14D) Graph of the ratios of the EC50 values for EphA2 Y588 phosphorylation and inhibition of AKT phosphorylation, which are used in the βlig calculation. (FIG. 14E) Equation used to calculate the bias factor βlig for each ligand. The terms of the equation are rearranged, compared to equation (1) in the Materials and Methods, to better conform to the graphs in FIG. 14A-14D. **, P<0.01; ***, P<0.001; ****, P<0.0001; ns, not significant for the comparison with ephrinA1-Fc by one-way ANOVA and Dunnett's posthoc test.
# The possibility of EphA2 biased signaling by analyzing the dose-response curves obtained with endogenous EphA2 in PC3 cells (FIG. 2A) was explored using approaches developed for GPCRs. This involves using EphA2 Y588 phosphorylation and AKT phosphorylation quantified as a function of ligand concentration to determine and compare the potency (EC50) and efficacy (Etop) for the two responses induced by different ligands. Remarkably, large differences among the ligands in the Etop values for Y588 phosphorylation (FIGS. 2C, 2D and 14A), but not in the Etop values for AKT inhibition (FIGS. 2E and 14B), were observed. In terms of relative efficacies for pY588 and pAKT inhibition, the C-terminally linked dimers and monomeric ligands behave differently from ephrinA1-Fc, while the N-terminally linked dimers and the head-to-tail dimer (8) are similar to ephrinA1-Fc (FIG. 14C). […] Thus, the type of linkage affects EphA2 signaling properties induced by the dimeric peptides.
# The determined EC50 and Etop values allowed us to calculate the bias factor βlig for the two different responses induced by the various ligands relative to ephrinA1-Fc as the reference ligand (FIG. 14E). […] Remarkably, the bias originates from different mechanisms that depend on the class of ligands, with the N-terminally linked and head-to-tail dimers modulating relative potencies and the C-terminally-linked dimers and monomers modulating relative efficacies.
# T1 sequence (P29317 28-200): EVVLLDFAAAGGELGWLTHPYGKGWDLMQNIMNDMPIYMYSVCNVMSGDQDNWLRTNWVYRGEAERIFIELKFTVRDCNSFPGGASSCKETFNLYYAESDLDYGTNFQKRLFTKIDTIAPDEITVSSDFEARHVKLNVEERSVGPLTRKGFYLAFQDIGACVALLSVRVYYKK
# T2 sequence (P29317 24-976): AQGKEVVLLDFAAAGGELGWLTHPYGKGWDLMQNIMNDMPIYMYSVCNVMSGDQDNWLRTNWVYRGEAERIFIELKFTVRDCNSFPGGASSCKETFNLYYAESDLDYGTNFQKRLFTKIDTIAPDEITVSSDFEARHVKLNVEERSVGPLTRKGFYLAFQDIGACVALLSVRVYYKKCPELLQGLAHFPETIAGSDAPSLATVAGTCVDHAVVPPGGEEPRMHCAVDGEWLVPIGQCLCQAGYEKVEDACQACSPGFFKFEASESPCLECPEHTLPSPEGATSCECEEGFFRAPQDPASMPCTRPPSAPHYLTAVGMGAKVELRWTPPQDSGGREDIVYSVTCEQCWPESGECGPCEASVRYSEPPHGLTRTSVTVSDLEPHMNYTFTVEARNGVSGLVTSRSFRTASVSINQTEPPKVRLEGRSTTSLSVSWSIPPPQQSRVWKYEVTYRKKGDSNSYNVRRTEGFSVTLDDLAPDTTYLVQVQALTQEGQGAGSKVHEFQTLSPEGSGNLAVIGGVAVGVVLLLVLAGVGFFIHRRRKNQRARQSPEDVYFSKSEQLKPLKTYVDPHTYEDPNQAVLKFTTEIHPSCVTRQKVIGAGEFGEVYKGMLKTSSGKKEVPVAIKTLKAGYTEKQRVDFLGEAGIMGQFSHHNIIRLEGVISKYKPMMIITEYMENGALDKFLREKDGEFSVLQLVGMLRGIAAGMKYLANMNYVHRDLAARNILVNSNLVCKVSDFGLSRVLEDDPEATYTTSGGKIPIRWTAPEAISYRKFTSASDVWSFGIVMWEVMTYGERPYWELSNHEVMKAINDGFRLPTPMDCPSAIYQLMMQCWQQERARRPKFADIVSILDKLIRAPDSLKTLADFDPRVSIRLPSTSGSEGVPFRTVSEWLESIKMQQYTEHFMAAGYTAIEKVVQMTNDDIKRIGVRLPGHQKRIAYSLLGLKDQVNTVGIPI
smiles,measurement,setting,value
"CC(C)C[C@H](NC(=O)[C@H](Cc1c[nH]c2ccccc12)NC(=O)[C@H](C)NC(=O)CNC(=O)[C@@H](N)CSSC[C@H](N)C(=O)NCC(=O)N[C@@H](C)C(=O)N[C@@H](Cc1c[nH]c2ccccc12)C(=O)N[C@@H](CC(C)C)C(=O)N[C@@H](C)C(=O)N[C@@H](Cc1ccc(O)cc1)C(=O)N1CCC[C@H]1C(=O)N[C@@H](CC(=O)O)C(=O)N[C@@H](CO)C(=O)N[C@H](C(=O)N1CCC[C@H]1C(=O)N[C@@H](Cc1ccc(O)cc1)C(=O)N[C@@H](CCCNC(=N)N)C(=O)N1CCC[C@H]1C(=O)N[C@@H](CCCCN)C(=O)O)C(C)C)C(=O)N[C@@H](C)C(=O)N[C@@H](Cc1ccc(O)cc1)C(=O)N1CCC[C@H]1C(=O)N[C@@H](CC(=O)O)C(=O)N[C@@H](CO)C(=O)N[C@H](C(=O)N1CCC[C@H]1C(=O)N[C@@H](Cc1ccc(O)cc1)C(=O)N[C@@H](CCCNC(=N)N)C(=O)N1CCC[C@H]1C(=O)N[C@@H](CCCCN)C(=O)O)C(C)C [compound 5, CGA-WLA-YRPK dimer (N-ter)]",Kd,EphA2 LBD,380 ± 80 nM
same,N (binding stoichiometry by ITC),EphA2 LBD; Table 3,N = 2.2 ± 0.2
same,Kd,"EphA2 LBD; Table 3, soluble EphA2 LBD",21 ± 3 nM
same,-TΔS,EphA2 LBD; Table 6,21.93 ± 0.31 kcal/mol
same,N,"EphA2 LBD; Table 6, binding stoichiometry",2.2 ± 0.2
same,ΔG,"EphA2 LBD; Table 6, change in Gibbs energy",-10.41 ± 0.10 kcal/mol
same,ΔH,"EphA2 LBD; Table 6, change in enthalpy",-32.34 ± 0.21 kcal/mol
same,Etop pY588,"EphA2 [1]; Table 3, 15 min, saturating ligand, pY588/EphA2 normalized to ephrinA1-Fc",0.87 ± 0.04
same,Emax PY588,EphA2 [1]; ephrinA1Fc = 1.00,0.78 ± 0.025
same,EC50,EphA2 [1]; read-out: EC50 PY588,0.53 ± 0.07 nM
same,βu (bias factor βlig),"EphA2 [2]; Table 3, reference ligand ephrinA1-Fc (βlig=0)",066 ± 0.12
same,Blig,"EphA2 [2]; bias factor, reference ligand ephrinA1Fc",0.81 ± 0.09

# Source: patent US20230391826A1, “COMPOSITIONS AND METHODS FOR TREATING DISEASES” (Sanford Burnham Prebys Medical Discovery Institute, priority 2020, published 2023)
